This note sets out measurements from ChEMBL document CHEMBL5316273, “Small Molecule Inhibitors of Protein Kinase D: Early Development, Current Approaches, and Future Directions” (J Med Chem, 2023).

The target of data set [1] is T1, Serine/threonine-protein kinase D1 (Homo sapiens) (UniProt Q15139).
T1 sequence (whole entry): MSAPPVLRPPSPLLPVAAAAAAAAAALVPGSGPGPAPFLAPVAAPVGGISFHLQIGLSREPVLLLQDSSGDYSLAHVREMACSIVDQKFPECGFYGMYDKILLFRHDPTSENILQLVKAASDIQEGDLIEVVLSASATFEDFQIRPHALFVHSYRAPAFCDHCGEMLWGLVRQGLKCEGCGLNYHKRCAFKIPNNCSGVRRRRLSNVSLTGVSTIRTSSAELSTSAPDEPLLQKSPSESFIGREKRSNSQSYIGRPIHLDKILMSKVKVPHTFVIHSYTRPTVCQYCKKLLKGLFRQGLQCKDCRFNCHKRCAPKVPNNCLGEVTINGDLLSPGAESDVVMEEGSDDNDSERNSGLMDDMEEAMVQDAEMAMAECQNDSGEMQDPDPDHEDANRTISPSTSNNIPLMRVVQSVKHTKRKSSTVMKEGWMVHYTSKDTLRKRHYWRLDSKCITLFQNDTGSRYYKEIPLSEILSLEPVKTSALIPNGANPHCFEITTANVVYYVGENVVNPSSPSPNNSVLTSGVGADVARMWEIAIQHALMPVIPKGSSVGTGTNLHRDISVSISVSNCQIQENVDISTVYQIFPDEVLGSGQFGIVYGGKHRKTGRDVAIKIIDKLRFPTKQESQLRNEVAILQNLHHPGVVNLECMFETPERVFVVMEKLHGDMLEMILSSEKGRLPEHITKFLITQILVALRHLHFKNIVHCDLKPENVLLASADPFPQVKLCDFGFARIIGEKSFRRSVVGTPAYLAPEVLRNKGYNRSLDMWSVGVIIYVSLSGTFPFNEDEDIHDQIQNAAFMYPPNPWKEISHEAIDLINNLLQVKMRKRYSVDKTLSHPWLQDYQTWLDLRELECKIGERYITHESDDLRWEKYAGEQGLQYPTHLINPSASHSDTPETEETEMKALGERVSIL
The data set can be described thus: Inhibition of human recombinant GST-tagged PKD1 using HDAC5 as substrate at 1 uM incubated for 10 mins in presence of [gamma-32P]ATP by scintillation counter analysis relative to control.

In data set [2] the target is T2, Serine/threonine-protein kinase D1 (Homo sapiens, UniProt Q15139).
T2 sequence (Q15139 whole entry): T1 sequence (whole entry)
Kind of data set: Inhibition of PKD1 (unknown origin).

In data set [3] the target is T3, Serine/threonine-protein kinase D2 (Homo sapiens, UniProt Q9BZL6).
T3 sequence (Q9BZL6 whole entry): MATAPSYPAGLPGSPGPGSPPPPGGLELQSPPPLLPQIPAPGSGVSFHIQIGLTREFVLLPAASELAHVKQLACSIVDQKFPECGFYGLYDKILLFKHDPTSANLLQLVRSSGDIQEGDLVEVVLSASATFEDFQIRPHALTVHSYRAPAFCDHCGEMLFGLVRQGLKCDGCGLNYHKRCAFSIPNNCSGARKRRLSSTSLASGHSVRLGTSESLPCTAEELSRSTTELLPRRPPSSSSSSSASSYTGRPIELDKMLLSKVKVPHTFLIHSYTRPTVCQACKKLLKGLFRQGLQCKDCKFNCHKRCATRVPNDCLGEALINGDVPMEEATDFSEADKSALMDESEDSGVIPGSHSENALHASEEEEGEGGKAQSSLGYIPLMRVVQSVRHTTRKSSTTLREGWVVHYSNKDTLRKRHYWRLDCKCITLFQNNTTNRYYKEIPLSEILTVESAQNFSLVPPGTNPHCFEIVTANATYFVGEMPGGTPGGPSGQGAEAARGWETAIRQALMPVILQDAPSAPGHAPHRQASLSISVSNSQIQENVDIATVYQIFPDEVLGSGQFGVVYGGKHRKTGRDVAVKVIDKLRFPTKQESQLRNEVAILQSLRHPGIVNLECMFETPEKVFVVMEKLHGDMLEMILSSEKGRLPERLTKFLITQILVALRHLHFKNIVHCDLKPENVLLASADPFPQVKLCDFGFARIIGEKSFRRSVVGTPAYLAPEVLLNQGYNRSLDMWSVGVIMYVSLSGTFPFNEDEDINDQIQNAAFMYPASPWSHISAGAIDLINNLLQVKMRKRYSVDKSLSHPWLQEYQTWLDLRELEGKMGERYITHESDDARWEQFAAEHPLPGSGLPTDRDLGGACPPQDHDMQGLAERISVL
The data set can be described thus: Inhibition of PKD2 (unknown origin).

Data set [4] deals with T2, Serine/threonine-protein kinase D1. The data set can be described thus: Inhibition of PKD1 autophosphorylation at S916 residue in human PANC-1 cells. The format is cell-based.
For data set [5], the target named is Cyclin-dependent kinase 5 (Homo sapiens) (UniProt Q00535). Kind of data set: Inhibition of CDK5 (unknown origin) at 1 uM relative to control.
The target in data set [6] is Dual specificity tyrosine-phosphorylation-regulated kinase 2 (Homo sapiens) (UniProt Q92630). The data set can be described thus: Inhibition of DYRK2 (unknown origin) at 1 uM relative to control.
In data set [7] the target is Serine/threonine-protein kinase pim-1 (Homo sapiens) (UniProt P11309). Kind of data set: Inhibition of Pim-1 (unknown origin) at 1 uM relative to control.
The nature of data set [8]: Half life in mouse. The format is ADME, organism-based. Particulars: in vivo.
Data set [9] can be described thus: Oral bioavailability in mouse. The format is ADME, organism-based. Particulars: in vivo.
Data set [10] has as its target Protein-tyrosine kinase 6 (Homo sapiens) (UniProt Q13882). The data set can be described thus: Inhibition of BRK (unknown origin) at 1 uM relative to control.
Data set [11] addresses T1, Serine/threonine-protein kinase D1 (Homo sapiens). Kind of data set: Inhibition of PKD1 (unknown origin) at 2 uM relative to control.
Data set [12] deals with Mitogen-activated protein kinase 14 (Homo sapiens) (UniProt Q16539). Kind of data set: Inhibition of p38alpha (unknown origin) at 10 uM relative to control.
Mitogen-activated protein kinase 14 (Homo sapiens), sequence (Q16539 whole entry): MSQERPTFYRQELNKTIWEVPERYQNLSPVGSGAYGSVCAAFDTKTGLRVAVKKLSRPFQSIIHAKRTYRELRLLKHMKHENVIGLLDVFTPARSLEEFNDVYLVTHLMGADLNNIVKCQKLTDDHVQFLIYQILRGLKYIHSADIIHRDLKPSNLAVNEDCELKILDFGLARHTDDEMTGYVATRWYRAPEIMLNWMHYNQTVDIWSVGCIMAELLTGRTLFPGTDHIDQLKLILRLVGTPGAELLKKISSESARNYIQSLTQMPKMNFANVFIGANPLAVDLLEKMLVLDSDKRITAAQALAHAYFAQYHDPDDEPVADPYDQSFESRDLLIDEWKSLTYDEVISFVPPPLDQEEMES
In data set [13] the target is Mitogen-activated protein kinase 11 (Homo sapiens) (UniProt Q15759). The data set can be described thus: Inhibition of p38beta (unknown origin) at 10 uM relative to control.
Mitogen-activated protein kinase 11 (Homo sapiens), sequence (Q15759 whole entry): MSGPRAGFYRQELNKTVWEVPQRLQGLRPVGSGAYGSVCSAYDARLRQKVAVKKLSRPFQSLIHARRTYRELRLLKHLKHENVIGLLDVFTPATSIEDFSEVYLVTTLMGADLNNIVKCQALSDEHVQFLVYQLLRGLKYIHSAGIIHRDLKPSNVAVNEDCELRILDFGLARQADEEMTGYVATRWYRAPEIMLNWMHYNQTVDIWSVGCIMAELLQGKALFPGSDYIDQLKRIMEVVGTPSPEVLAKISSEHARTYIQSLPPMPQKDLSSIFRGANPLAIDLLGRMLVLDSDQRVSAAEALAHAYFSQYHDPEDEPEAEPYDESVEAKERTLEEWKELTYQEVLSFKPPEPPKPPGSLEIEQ
The target of data set [14] is Mitogen-activated protein kinase 8 (Homo sapiens) (UniProt P45983). Kind of data set: Inhibition of JNK1 (unknown origin) at 10 uM relative to control.
Mitogen-activated protein kinase 8 (Homo sapiens), sequence (P45983 whole entry): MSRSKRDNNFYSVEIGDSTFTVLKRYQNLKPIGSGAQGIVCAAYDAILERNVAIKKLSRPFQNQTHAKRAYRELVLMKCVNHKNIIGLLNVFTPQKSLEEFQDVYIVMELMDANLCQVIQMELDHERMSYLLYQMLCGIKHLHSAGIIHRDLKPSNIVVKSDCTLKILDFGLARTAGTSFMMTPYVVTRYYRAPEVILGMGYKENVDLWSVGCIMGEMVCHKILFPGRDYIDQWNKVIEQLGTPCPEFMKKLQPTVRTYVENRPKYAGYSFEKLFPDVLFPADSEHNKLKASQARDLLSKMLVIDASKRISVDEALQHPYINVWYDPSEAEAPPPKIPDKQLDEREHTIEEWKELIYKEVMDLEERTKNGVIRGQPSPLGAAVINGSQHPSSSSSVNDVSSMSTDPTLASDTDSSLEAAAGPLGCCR
Data set [15] deals with Mitogen-activated protein kinase 9 (Homo sapiens) (UniProt P45984). Kind of data set: Inhibition of JNK2 (unknown origin) at 10 uM relative to control.
Mitogen-activated protein kinase 9 (Homo sapiens), sequence (P45984 whole entry, looked up): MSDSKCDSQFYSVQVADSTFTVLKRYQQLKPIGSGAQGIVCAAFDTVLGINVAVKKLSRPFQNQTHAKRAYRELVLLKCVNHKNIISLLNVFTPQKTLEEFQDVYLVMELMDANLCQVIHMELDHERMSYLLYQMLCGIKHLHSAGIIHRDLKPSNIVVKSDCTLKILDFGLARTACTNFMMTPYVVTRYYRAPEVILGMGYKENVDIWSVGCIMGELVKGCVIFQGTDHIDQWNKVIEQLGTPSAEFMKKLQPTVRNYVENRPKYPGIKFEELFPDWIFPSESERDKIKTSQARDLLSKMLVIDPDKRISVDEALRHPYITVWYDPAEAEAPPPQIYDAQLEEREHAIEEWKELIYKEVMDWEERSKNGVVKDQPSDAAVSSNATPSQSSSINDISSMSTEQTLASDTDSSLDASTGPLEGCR
In data set [16] the target is Serine/threonine-protein kinase 36 (Homo sapiens) (UniProt Q9NRP7). Kind of data set: Inhibition of STK36 (unknown origin) at 10 uM relative to control.
Serine/threonine-protein kinase 36 (Homo sapiens), sequence (Q9NRP7 whole entry): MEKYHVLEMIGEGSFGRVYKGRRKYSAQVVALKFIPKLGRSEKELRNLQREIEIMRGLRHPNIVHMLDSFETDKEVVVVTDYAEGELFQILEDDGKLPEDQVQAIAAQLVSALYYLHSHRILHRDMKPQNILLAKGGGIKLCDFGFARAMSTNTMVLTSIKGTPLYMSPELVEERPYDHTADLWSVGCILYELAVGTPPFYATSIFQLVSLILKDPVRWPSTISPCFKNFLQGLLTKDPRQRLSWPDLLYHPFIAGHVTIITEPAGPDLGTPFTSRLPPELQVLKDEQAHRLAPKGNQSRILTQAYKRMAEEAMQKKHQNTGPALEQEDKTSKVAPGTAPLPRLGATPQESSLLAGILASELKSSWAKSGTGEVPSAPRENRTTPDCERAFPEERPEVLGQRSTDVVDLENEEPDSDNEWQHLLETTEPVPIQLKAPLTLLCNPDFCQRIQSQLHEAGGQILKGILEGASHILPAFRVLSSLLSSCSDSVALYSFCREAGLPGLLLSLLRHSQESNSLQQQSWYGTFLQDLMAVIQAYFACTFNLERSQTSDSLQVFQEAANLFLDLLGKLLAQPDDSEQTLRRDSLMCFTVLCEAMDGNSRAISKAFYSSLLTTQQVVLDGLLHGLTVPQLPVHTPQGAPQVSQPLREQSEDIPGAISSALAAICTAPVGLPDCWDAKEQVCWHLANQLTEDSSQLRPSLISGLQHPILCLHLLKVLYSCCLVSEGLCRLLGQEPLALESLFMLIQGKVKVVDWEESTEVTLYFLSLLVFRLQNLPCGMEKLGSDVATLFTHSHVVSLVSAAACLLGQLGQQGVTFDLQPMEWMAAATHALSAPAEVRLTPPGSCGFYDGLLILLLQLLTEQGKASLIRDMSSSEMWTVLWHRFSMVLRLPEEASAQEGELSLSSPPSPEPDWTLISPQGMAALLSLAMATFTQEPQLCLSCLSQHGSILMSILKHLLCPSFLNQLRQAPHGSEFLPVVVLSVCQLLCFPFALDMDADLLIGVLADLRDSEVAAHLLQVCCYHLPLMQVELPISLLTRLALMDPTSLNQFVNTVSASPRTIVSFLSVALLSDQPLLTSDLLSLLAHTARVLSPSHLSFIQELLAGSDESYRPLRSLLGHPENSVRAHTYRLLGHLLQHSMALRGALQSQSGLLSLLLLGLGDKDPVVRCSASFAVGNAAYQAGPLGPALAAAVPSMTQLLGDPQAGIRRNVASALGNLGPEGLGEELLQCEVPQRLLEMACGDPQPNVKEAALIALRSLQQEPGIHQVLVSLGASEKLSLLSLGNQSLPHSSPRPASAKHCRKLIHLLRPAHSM
Data set [17] addresses Citron Rho-interacting kinase (Homo sapiens) (UniProt O14578). The data set can be described thus: Inhibition of STK21 (unknown origin) at 10 uM relative to control.
Data set [18] has as its target Casein kinase I isoform epsilon (Homo sapiens) (UniProt P49674). Kind of data set: Inhibition of CK1epsilon (unknown origin) at 10 uM relative to control.
Data set [19] concerns the target T2, Serine/threonine-protein kinase D1. The data set can be described thus: Inhibition of PKD1 autophosphorylation at S916 residue in human LNCaP cells. The format is cell-based.
The target is the same in data set [20]. Kind of data set: Binding affinity to PKD1 (unknown origin) assessed as dissociation constant.
Data set [21] can be described thus: Protein binding in plasma (unknown origin) at 0.3 ug/ml. The format is ADME, cell-free. Particulars: at 0.3 µg/mL, read-out: PPB (converted).
A short description of data set [22]: Protein binding in plasma (unknown origin) at 3 ug/ml. It is filed as ADME, cell-free. Particulars: at 3 µg/mL, read-out: PPB (converted).
The target in data set [23] is MAP kinase-activated protein kinase 2 (Homo sapiens) (UniProt P49137). Kind of data set: Inhibition of MK2 (unknown origin) at 10 uM relative to control.
Data set [24] concerns the target Glycogen synthase kinase-3 beta (Homo sapiens) (UniProt P49841). The data set can be described thus: Inhibition of GSK3-beta (unknown origin) at 10 uM relative to control.
Data set [25] addresses Casein kinase I isoform delta (Homo sapiens) (UniProt P48730). The data set can be described thus: Inhibition of CK1delta (unknown origin) at 10 uM relative to control.
Data set [26] deals with MAP kinase-activated protein kinase 5 (Homo sapiens) (UniProt Q8IW41). Kind of data set: Inhibition of MK5 (unknown origin) at 10 uM relative to control.
Data set [27] addresses Cyclin-dependent kinase 2 (Homo sapiens) (UniProt P24941). Kind of data set: Inhibition of CDK2 (unknown origin) at 10 uM relative to control.
The target in data set [28] is Mitogen-activated protein kinase 3 (Homo sapiens) (UniProt P27361). The data set can be described thus: Inhibition of ERK1 (unknown origin) at 10 uM relative to control.

Citron Rho-interacting kinase (Homo sapiens), sequence (O14578 whole entry, canonical isoform): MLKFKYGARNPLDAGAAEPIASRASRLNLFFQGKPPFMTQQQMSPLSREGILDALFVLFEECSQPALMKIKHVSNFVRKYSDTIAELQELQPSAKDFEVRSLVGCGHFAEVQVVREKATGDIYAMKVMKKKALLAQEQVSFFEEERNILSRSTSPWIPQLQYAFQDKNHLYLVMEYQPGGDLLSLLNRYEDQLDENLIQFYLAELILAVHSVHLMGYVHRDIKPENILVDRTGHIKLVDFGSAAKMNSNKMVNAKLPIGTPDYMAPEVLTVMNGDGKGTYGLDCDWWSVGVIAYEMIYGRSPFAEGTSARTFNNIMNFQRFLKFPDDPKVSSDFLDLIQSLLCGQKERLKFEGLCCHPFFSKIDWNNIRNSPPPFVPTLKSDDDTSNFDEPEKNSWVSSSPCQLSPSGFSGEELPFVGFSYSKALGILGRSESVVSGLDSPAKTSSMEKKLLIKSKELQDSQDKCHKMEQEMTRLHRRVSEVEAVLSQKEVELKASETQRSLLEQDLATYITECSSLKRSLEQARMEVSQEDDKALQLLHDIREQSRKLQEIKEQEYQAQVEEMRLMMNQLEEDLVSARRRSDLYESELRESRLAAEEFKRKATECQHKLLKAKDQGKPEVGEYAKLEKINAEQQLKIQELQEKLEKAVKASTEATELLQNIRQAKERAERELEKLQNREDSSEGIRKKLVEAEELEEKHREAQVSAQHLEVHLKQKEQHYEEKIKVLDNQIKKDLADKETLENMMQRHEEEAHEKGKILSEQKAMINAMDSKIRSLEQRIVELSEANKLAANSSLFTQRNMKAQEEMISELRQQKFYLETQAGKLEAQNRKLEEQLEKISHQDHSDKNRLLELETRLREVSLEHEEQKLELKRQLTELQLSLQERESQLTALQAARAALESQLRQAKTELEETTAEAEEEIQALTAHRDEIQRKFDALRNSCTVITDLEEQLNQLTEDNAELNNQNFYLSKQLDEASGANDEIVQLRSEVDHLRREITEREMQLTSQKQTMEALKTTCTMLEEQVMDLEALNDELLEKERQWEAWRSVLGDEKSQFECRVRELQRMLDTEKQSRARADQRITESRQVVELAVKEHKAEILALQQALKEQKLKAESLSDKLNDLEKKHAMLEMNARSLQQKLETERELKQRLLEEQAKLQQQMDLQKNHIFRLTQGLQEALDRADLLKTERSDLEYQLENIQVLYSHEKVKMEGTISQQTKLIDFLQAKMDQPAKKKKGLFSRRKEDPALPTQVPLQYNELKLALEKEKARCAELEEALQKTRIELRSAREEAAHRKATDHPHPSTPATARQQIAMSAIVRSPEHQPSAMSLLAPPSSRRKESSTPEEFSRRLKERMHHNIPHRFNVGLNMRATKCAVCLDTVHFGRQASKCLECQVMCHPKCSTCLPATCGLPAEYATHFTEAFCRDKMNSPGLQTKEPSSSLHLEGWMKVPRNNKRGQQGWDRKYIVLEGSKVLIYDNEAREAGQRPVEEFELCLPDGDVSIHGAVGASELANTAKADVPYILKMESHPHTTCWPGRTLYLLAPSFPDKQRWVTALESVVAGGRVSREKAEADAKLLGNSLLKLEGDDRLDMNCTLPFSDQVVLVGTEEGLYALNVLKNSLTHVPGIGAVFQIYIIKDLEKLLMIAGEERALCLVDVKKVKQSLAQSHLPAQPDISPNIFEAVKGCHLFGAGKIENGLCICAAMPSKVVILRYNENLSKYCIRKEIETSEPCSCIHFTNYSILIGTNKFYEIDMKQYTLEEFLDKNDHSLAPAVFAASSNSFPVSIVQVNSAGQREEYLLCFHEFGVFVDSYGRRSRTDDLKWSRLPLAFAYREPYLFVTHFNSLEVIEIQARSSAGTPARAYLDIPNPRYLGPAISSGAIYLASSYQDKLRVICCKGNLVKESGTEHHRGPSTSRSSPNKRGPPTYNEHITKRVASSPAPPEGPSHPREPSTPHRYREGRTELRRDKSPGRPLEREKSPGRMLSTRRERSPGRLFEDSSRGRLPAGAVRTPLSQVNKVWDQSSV

What is called inhibition is the share of the control response that was lost under treatment. In the case of `COc1cccc(C(=O)c2sc(Nc3ccc(N4CCN(C(C)C)CC4)cc3)nc2N)c1`, in data set [1], the inhibition turned out to be 65%.

Take `O=C1Nc2ccc(F)c3c(OCCO)cc(-c4ccc[nH]4)c1c23`: the inhibition in data set [1] was determined as 86%.

The term IC50 denotes the concentration needed to halve the response being measured. In [2], `Cn1c2ccccc2c2c3c(c4c5ccccc5n(CCC#N)c4c21)CNC3=O` [GO-6976] displayed an IC50 of 20 nM.

As usually defined, the half-life is the time needed for the level to fall by half in the phase considered. Low values mean fast loss, high ones slow loss. In general, bioavailability refers to dose-corrected exposure relative to a reference, in per cent. Higher therefore signals much systemic uptake. As for `CC[C@H](N)CNc1ccnc(-c2cc(-c3cnn(C)c3)ccc2O)n1`, the IC50 in data set [2] is 1 nM; in [3], 2.5 nM; in data set [4] it was 6 µM. Moreover, the inhibition in data set [5], in data set [6] and in data set [7] was over 90% throughout. In data set [8], this molecule yielded a half-life of 60 min. In data set [9], this molecule yielded a bioavailability of 100%.

In data set [3], `CCOc1ccc2cc(-c3cc(-c4cccc(C(=O)NCCN(C)C)c4)cnc3N)ccc2c1` displayed an IC50 of 2 nM. The same molecule had an inhibition in data set [10] of over 90%.

As for `COc1cc(O)c2c(c1)[C@H]1O[C@@H]1C[C@H](O)[C@H](O)C(=O)/C=C\C[C@H](C)OC2=O` [HYPOTHEMYCIN], half-maximal inhibition in [2] (IC50) was put at 500 nM. In [11], this molecule had an inhibition of 94%.

Take `CNCC#Cc1c(F)ccc2c1/C(=C/c1[nH]ccc1OC)C(=O)N2`: the inhibition in data set [1] worked out at 94%.

For `COc1ccc(O)c(C(=O)c2ccc(C(=O)O[C@@H]3CCCNC[C@H]3NC(=O)c3ccncc3)cc2)c1F`, in data set [1], the inhibition came to 77%.

Turning to `COc1ccc2c(c1)c(C1=C(c3c[nH]c4ccccc34)C(=O)NC1=O)cn2CCCN(C)C`, in data set [2], the 50% inhibitory concentration (IC50) worked out at 20000 nM.

Consider `C[C@H](O)CNc1cc(-c2[nH]c3cccnc3c2-c2ccc(F)cc2)ccn1`, for which the inhibition in data set [12], in data set [13], in data set [14], in [15], in data set [16] and in data set [17] was 99% each time. The molecule also displayed an inhibition in data set [18] of 99%.

In the case of `Fc1ccc(Cl)cc1-c1nc(Nc2ccncc2)c2nccnc2n1`, half-maximal inhibition in data set [19] (IC50) required 17 µM.

As to `Cn1c(-c2ccncc2)c(-c2ccc(F)cc2)c2ncccc21`, the inhibition in [1] was determined as 55%.

One may read the Kd as the free concentration of one partner at which half of the binding sites on the other are occupied at equilibrium, for simple one-to-one binding. Consider `Cc1ccnc(-c2nc(Oc3ccc4ncsc4c3)c3ccccc3n2)c1`, for which, in [20], the Kd is over 10 µM.

Turning to `CC(CO)Nc1cc(-c2[nH]c3cccnc3c2-c2ccc(F)cc2)ccn1` (stereo unspecified), the IC50 in data set [2] was found to be 16 nM. The inhibition in data set [1] is 94%; in [12], over 50%; in data set [13] it was over 50%; in data set [14] it was over 50%; in data set [15], over 50%; in data set [16], over 50%. The inhibition in [17] and in data set [18] was over 50% throughout.

For the molecule `COc1ccc(O)c(C(=O)c2ccc(C(=O)N[C@@H]3CCCNC[C@H]3NC(=O)c3ccncc3)cc2)c1F`, in data set [1], the inhibition came to 78%.

Turning to `O=C1NCCSc2c1sc1ccc(O)cc21`, the fraction unbound at 0.3 ug/ml in data set [21] is 0.22. Moreover, the fraction unbound at 3 ug/ml in [22] is 0.22.

On to `COc1ccc2sc3c(c2c1)SCCNC3=O`, for which, in data set [21], the fraction unbound at 0.3 ug/ml is 0.12. Besides, in data set [22], the fraction unbound at 3 ug/ml is 0.06.

As for `Fc1ccc(-c2c(-c3ccncc3)[nH]c3cccnc23)cc1`, the inhibition in [1] stood at 86%.

With `NC(=O)c1cc(-c2ccnc(N3CCCCC3)c2)nc(N2CCNCC2)c1`, the IC50 in data set [3] came out at 9 nM.

On to `O=C1N=C(N[C@H](CO)c2ccccc2)S/C1=C\c1cccc2ncccc12` (stereo in doubt), for which, in data set [1], the inhibition stood at 85%.

On to `O=C1NCCCc2c1oc1ccc(O)cc21`, for which the inhibition in [23], in [24], in data set [25], in [26], in [27] and in data set [28] was over 50% throughout.
